Patent publication US10336761B2, “TGFβ receptor antagonist” (BRISTOL-MYERS SQUIBB COMPANY, priority 2015, dated 2019)

Target: HIS-TGFβR1 T204D (Homo sapiens (Human), UniProt P36897, T204D)
Assay: HTRF probe-displacement assay, HIS-TGFβR1 T204D
Assay type: binding
Conditions: 1 hour at room temperature

HIS-TGFβR1 T204D, sequence (P36897 34-503 T204D): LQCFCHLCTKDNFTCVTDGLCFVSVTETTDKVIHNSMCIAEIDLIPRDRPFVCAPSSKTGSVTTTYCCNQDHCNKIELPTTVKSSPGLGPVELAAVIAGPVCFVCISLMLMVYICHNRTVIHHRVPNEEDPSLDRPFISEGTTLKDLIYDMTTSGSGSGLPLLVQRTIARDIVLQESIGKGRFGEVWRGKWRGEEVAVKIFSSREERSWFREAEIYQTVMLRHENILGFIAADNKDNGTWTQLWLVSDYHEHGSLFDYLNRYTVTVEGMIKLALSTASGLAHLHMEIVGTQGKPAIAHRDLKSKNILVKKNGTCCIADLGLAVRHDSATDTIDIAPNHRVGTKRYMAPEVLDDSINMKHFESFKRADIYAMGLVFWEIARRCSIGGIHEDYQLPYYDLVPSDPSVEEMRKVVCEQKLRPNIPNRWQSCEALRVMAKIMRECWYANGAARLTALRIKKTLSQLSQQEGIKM

Structure (SMILES) | IC50
COCCC(=O)Nc1cc(Nc2nc(-c3cccc(C(F)(F)F)n3)nn3cccc23)ccn1 [Example 343, 3-methoxy-N-[4-({2-[6-(trifluoromethyl)pyridin-2-yl]pyrrolo[2,1-f][1,2,4]triazin-4-yl}amino)pyridin-2-yl]propanamide] | 1.8 nM
OC12C[C@H]3C[C@@H](C1)CC(NCc1ccn4nc(-c5ccccn5)nc(Nc5ccncc5F)c14)(C3)C2 [Example 237, (5R,7S)-3-[({4-[(3-fluoropyridin-4-yl)amino]-2-(pyridin-2-yl)pyrrolo[2,1-f][1,2,4]triazin-5-yl}methyl)amino]adamantan-1-ol] | 1.2 nM
Cc1nc(-c2nc(Nc3ccncc3Cl)c3cccn3n2)ccc1F [Example 3, 3-chloro-N-[2-(5-fluoro-6-methylpyridin-2-yl)pyrrolo[2,1-f][1,2,4]triazin-4-yl]pyridin-4-amine] | 0.82 nM
CN1CCC(CCNCc2ccn3nc(-c4ccccn4)nc(Nc4ccncc4F)c23)CC1 [Example 303, 3-fluoro-N-[5-({[2-(1-methylpiperidin-4-yl)ethyl]amino}methyl)-2-(pyridin-2-yl)pyrrolo[2,1-f][1,2,4]triazin-4-yl]pyridin-4-amine] | 5.4 nM
CC(=O)Nc1cc(Nc2nc(-c3ccccn3)nn3ccc(CN4CCC(F)(F)CC4)c23)ccn1 [Example 24, N-[4-({5-[(4,4-difluoropiperidin-1-yl)methyl]-2-(pyridin-2-yl)pyrrolo[2,1-f][1,2,4]triazin-4-yl}amino)pyridin-2-yl]acetamide] | 0.4 nM
COc1cccc(-c2nc(Nc3ccncc3F)c3c(C(O)CN4CCN(C)CC4)ccn3n2)n1 (stereo not drawn) [Example 128, 1-{4-[(3-fluoropyridin-4-yl)amino]-2-(6-methoxypyridin-2-yl)pyrrolo[2,1-f][1,2,4]triazin-5-yl}-2-(4-methylpiperazin-1-yl)ethan-1-ol] | 950 nM
Fc1cnccc1Nc1nc(-c2ccccn2)nn2ccc(CN3CCC(F)(F)CC3)c12 [Example 27, N-{5-[(4,4-difluoropiperidin-1-yl)methyl]-2-(pyridin-2-yl)pyrrolo[2,1-f][1,2,4]triazin-4-yl}-3-fluoropyridin-4-amine] | 1.3 nM
CC1(NCc2ccn3nc(-c4ccccn4)nc(Nc4ccncc4F)c23)CCOCC1 [Example 242, 3-fluoro-N-(5-{[(4-methyloxan-4-yl)amino]methyl}-2-(pyridin-2-yl)pyrrolo[2,1-f][1,2,4]triazin-4-yl)pyridin-4-amine] | < 0.76 nM
COc1cccc(-c2nc(Nc3ccncc3F)c3cc(CN4CCC(F)(F)CC4)cn3n2)n1 [Example 40, N-{6-[(4,4-difluoropiperidin-1-yl)methyl]-2-(6-methoxypyridin-2-yl)pyrrolo[2,1-f][1,2,4]triazin-4-yl}-3-fluoropyridin-4-amine] | 230 nM
Cc1cccc(-c2nc(Nc3ccncc3C(=O)NCC3(O)CCN(C)CC3)c3cccn3n2)n1 [Example 154, N-[(4-hydroxy-1-methylpiperidin-4-yl)methyl]-4-{[2-(6-methylpyridin-2-yl)pyrrolo[2,1-f][1,2,4]triazin-4-yl]amino}pyridine-3-carboxamide] | 33 nM
Fc1cnccc1Nc1nc(-c2ccccn2)nn2ccc(CN[C@H]3CCN(Cc4ccccc4)C3)c12 [Example 285, N-[5-({[(3S)-1-benzylpyrrolidin-3-yl]amino}methyl)-2-(pyridin-2-yl)pyrrolo[2,1-f][1,2,4]triazin-4-yl]-3-fluoropyridin-4-amine] | 1.2 nM
O=C(NCc1ccn[nH]1)c1cnccc1Nc1nc(-c2cccc(C(F)F)n2)nn2cccc12 [Example 197, 4-({2-[6-(difluoromethyl)pyridin-2-yl]pyrrolo[2,1-f][1,2,4]triazin-4-yl}amino)-N-(1H-pyrazol-5-ylmethyl)pyridine-3-carboxamide] | 42 nM
Cc1cccc(-c2nc(Nc3ccncc3C(=O)NCCCO)c3cccn3n2)n1 [Example 159, N-(3-hydroxypropyl)-4-{[2-(6-methylpyridin-2-yl)pyrrolo[2,1-f][1,2,4]triazin-4-yl]amino}pyridine-3-carboxamide] | 4.8 nM
Fc1cnccc1Nc1nc(-c2ccccn2)nn2ccc(CNCC3CCCO3)c12 (stereo not drawn) [Example 247, 3-fluoro-N-(5-{[(oxolan-2-ylmethyl)amino]methyl}-2-(pyridin-2-yl)pyrrolo[2,1-f][1,2,4]triazin-4-yl)pyridin-4-amine] | 1 nM
CCOCCCNC(=O)c1cnccc1Nc1nc(-c2cccc(C(F)F)n2)nn2cccc12 [Example 172, 4-({2-[6-(difluoromethyl)pyridin-2-yl]pyrrolo[2,1-f][1,2,4]triazin-4-yl}amino)-N-(3-ethoxypropyl)pyridine-3-carboxamide] | 24 nM
CS(=O)(=O)Nc1cc(Nc2nc(-c3cccc(C(F)(F)F)n3)nn3cccc23)ccn1 [Example 318, N-[4-({2-[6-(trifluoromethyl)pyridin-2-yl]pyrrolo[2,1-f][1,2,4]triazin-4-yl}amino)pyridin-2-yl]methanesulfonamide] | 4000 nM
CC(C)(O)CNCc1ccn2nc(-c3cccc(C(F)(F)F)n3)nc(Nc3ccncc3F)c12 [Example 124, 1-[({4-[(3-fluoropyridin-4-yl)amino]-2-[6-(trifluoromethyl)pyridin-2-yl]pyrrolo[2,1-f][1,2,4]triazin-5-yl}methyl)amino]-2-methylpropan-2-ol] | 6 nM

Structure (SMILES) | IC50
C[C@@H]1CN(CCNC(=O)c2cnccc2Nc2nc(-c3ccccn3)nn3cccc23)C[C@H](C)O1 [Example 146, N-{2-[cis-2,6-dimethylmorpholin-4-yl]ethyl}-4-{[2-(pyridin-2-yl)pyrrolo[2,1-f][1,2,4]triazin-4-yl]amino}pyridine-3-carboxamide] | 170 nM
Fc1cnccc1Nc1nc(-c2ccc(C(F)(F)F)cn2)nn2cccc12 [Example 248, 3-fluoro-N-{2-[5-(trifluoromethyl)pyridin-2-yl]pyrrolo[2,1-f][1,2,4]triazin-4-yl}pyridin-4-amine] | 70 nM
COc1cccc(-c2nc(Nc3ccncc3F)c3c(C(C)(C)O)ccn3n2)n1 [Example 48, 2-{4-[(3-fluoropyridin-4-yl)amino]-2-(6-methoxypyridin-2-yl)pyrrolo[2,1-f][1,2,4]triazin-5-yl}propan-2-ol] | 32 nM
COc1cccc(-c2nc(Nc3ccncc3F)c3cc(CNCCCN4CCS(=O)(=O)CC4)cn3n2)n1 [Example 209, 4-{3-[({4-[(3-fluoropyridin-4-yl)amino]-2-(6-methoxypyridin-2-yl)pyrrolo[2,1-f][1,2,4]triazin-6-yl}methyl)amino]propyl}-1,4-thiomorpholine-1,1-dione] | 7700 nM
CC(=O)Nc1cc(Nc2nc(-c3ccccn3)nn3ccc(CNCC(C)(C)O)c23)ccn1 [Example 117, N-{4-[(5-{[(2-hydroxy-2-methylpropyl)amino]methyl}-2-(pyridin-2-yl)pyrrolo[2,1-f][1,2,4]triazin-4-yl)amino]pyridin-2-yl}acetamide] | 0.85 nM
COc1cccc(-c2nc(Nc3ccncc3F)c3c(CNC[C@@H](F)C(C)(C)O)ccn3n2)n1 [Example 120, (3R)-3-fluoro-4-[({4-[(3-fluoropyridin-4-yl)amino]-2-(6-methoxypyridin-2-yl)pyrrolo[2,1-f][1,2,4]triazin-5-yl}methyl)amino]-2-methylbutan-2-ol] | 98 nM
O=C(Nc1cc(Nc2nc(-c3cccc(C(F)(F)F)n3)nn3cccc23)ccn1)C1CC1 [Example 335, N-[4-({2-[6-(trifluoromethyl)pyridin-2-yl]pyrrolo[2,1-f][1,2,4]triazin-4-yl}amino)pyridin-2-yl]cyclopropanecarboxamide] | 0.37 nM
OC1CCC(NCc2ccn3nc(-c4ccccn4)nc(Nc4ccncc4F)c23)CC1 (stereo not drawn) [Example 236, 4-[({4-[(3-fluoropyridin-4-yl)amino]-2-(pyridin-2-yl)pyrrolo[2,1-f][1,2,4]triazin-5-yl}methyl)amino]cyclohexan-1-ol] | 2.2 nM
CCOC(=O)CCNC(=O)c1cnccc1Nc1nc(-c2cccc(C(F)F)n2)nn2cccc12 [Example 204, Ethyl 3-{[4-({2-[6-(difluoromethyl)pyridin-2-yl]pyrrolo[2,1-f][1,2,4]triazin-4-yl}amino)pyridin-3-yl]formamido}propanoate] | 53 nM
Cc1cccc(-c2nc(Nc3ccncc3C(=O)NC(C)(C)CO)c3cccn3n2)n1 [Example 157, N-(1-hydroxy-2-methylpropan-2-yl)-4-{[2-(6-methylpyridin-2-yl)pyrrolo[2,1-f][1,2,4]triazin-4-yl]amino}pyridine-3-carboxamide] | 34 nM
Fc1cc(Nc2nc(-c3ccccn3)nn3cccc23)ccn1 [Example 55, 2-fluoro-N-[2-(pyridin-2-yl)pyrrolo[2,1-f][1,2,4]triazin-4-yl]pyridin-4-amine] | 69 nM
FC(F)(F)c1cccc(-c2nc(Nc3ccncc3Cl)c3cccn3n2)n1 [Example 86, 3-chloro-N-{2-[6-(trifluoromethyl)pyridin-2-yl]pyrrolo[2,1-f][1,2,4]triazin-4-yl}pyridin-4-amine] | 1.9 nM
Cc1cccc(-c2nc(Nc3ccncc3C(=O)NC3CCOC3)c3cccn3n2)n1 (stereo not drawn) [Example 161, 4-{[2-(6-methylpyridin-2-yl)pyrrolo[2,1-f][1,2,4]triazin-4-yl]amino}-N-(oxolan-3-yl)pyridine-3-carboxamide] | 28 nM
CCOc1cccc(-c2nc(Nc3ccncc3F)c3cccn3n2)n1 [Example 102, N-[2-(6-ethoxypyridin-2-yl)pyrrolo[2,1-f][1,2,4]triazin-4-yl]-3-fluoropyridin-4-amine] | 15 nM
Fc1cnccc1Nc1nc(-c2ccc(F)c(C(F)F)n2)nn2cccc12 [Example 66, N-{2-[6-(difluoromethyl)-5-fluoropyridin-2-yl]pyrrolo[2,1-f][1,2,4]triazin-4-yl}-3-fluoropyridin-4-amine] | 0.46 nM
COc1cccc(-c2nc(Nc3ccncc3F)c3c(CCN4CCN(C)CC4)ccn3n2)n1 [Example 112, 3-fluoro-N-[2-(6-methoxypyridin-2-yl)-5-[2-(4-methylpiperazin-1-yl)ethyl]pyrrolo[2,1-f][1,2,4]triazin-4-yl]pyridin-4-amine] | 360 nM
